Test results reported in ChEMBL document CHEMBL1201862, “PubChem BioAssay data set” (2004).
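Briefly, cells in 96-well plates were exposed to five compound concentrations for 48 h, and endpoints were estimated by linear interpolation. The concentration for 50% growth inhibition is given as GI50.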 Calls of active or inactive are those of the source. Rule as the data show it: active = GI50 up to about 1.1 µM and inactive = higher.

Assays:
Assay in all cases: NCI-60 cell line screen, 48 h
786-0 = system: 786-0
A498 = system: A498
A549 = system: A549
ACHN = system: ACHN
BT-549 = system: BT-549
CAKI-1 = system: CAKI-1
CCRF-CEM = system: CCRF-CEM
COLO 205 = system: COLO 205
DU-145 = system: DU-145
EKVX = system: EKVX
HCT-116 = system: HCT-116
HCT-15 = system: HCT-15
HL-60 = system: HL-60
HOP-62 = system: HOP-62
HOP-92 = system: HOP-92
HT-29 = system: HT-29
Hs-578T = system: Hs-578T
IGROV-1 = system: IGROV-1
K562 = system: K562
KM12 = system: KM12
LOX IMVI = system: LOX IMVI
M14 = system: M14
MCF7 = system: MCF7
MDA-MB-231 = system: MDA-MB-231
MDA-MB-435 = system: MDA-MB-435
MDA-N = system: MDA-N
Malme-3M = system: Malme-3M
NCI-H226 = system: NCI-H226
NCI-H23 = system: NCI-H23
NCI-H460 = system: NCI-H460
NCI-H522 = system: NCI-H522
NCI/ADR-RES = system: NCI/ADR-RES
OVCAR-3 = system: OVCAR-3
OVCAR-4 = system: OVCAR-4
OVCAR-5 = system: OVCAR-5
OVCAR-8 = system: OVCAR-8
PC-3 = system: PC-3
RPMI-8226 = system: RPMI-8226
RXF 393 = system: RXF 393
SF-268 = system: SF-268
SF-295 = system: SF-295
SK-MEL-28 = system: SK-MEL-28
SK-MEL-2 = system: SK-MEL-2
SK-MEL-5 = system: SK-MEL-5
SK-OV-3 = system: SK-OV-3
SN12C = system: SN12C
SNB-19 = system: SNB-19
SNB-75 = system: SNB-75
SR = system: SR
SW-620 = system: SW-620
T47D = system: T47D
TK-10 = system: TK-10
U-251 = system: U-251
UACC-257 = system: UACC-257
UACC-62 = system: UACC-62
UO-31 = system: UO-31
MOLT-4 = system: MOLT-4

COc1ccc(Cc2ccccc2C(=O)O)c2ccccc12
GI50 (786-0): 34.2 µM (inactive) | GI50 (A498): 22.8 µM (inactive) | GI50 (A549): 33 µM (inactive) | GI50 (ACHN): 31.2 µM (inactive) | GI50 (BT-549): 39.2 µM (inactive) | GI50 (CAKI-1): 35.3 µM (inactive) | GI50 (CCRF-CEM): 26.1 µM (inactive) | GI50 (COLO 205): 17.9 µM (inactive) | GI50 (DU-145): 37.5 µM (inactive) | GI50 (EKVX): 26.4 µM (inactive) | GI50 (HCT-116): 20.7 µM (inactive) | GI50 (HCT-15): 28.2 µM | GI50 (HL-60): 21 µM (inactive) | GI50 (HOP-62): 36.6 µM (inactive) | GI50 (HOP-92): 18.8 µM (inactive) | GI50 (HT-29): 28.8 µM (inactive) | GI50 (Hs-578T): 12.1 µM (inactive) | GI50 (IGROV-1): 30.6 µM (inactive) | GI50 (K562): 37 µM (inactive) | GI50 (KM12): 18.7 µM (inactive) | GI50 (LOX IMVI): 23.2 µM (inactive) | GI50 (M14): 35.6 µM (inactive) | GI50 (MCF7): 38.1 µM (inactive) | GI50 (MDA-MB-231): 32 µM (inactive) | GI50 (MDA-MB-435): 22 µM (inactive) | GI50 (MDA-N): 27.6 µM (inactive) | GI50 (Malme-3M): 21.8 µM (inactive) | GI50 (NCI-H226): 39.4 µM (inactive) | GI50 (NCI-H23): 25.5 µM (inactive) | GI50 (NCI-H460): 18.8 µM (inactive) | GI50 (NCI-H522): 20.3 µM (inactive) | GI50 (NCI/ADR-RES): 32.5 µM (inactive) | GI50 (OVCAR-3): 20.7 µM (inactive) | GI50 (OVCAR-4): 36.6 µM (inactive) | GI50 (OVCAR-5): 24.3 µM (inactive) | GI50 (OVCAR-8): 28.5 µM (inactive) | GI50 (PC-3): 30.6 µM (inactive) | GI50 (RPMI-8226): 29.4 µM (inactive) | GI50 (RXF 393): 44.3 µM (inactive) | GI50 (SF-268): 22.8 µM (inactive) | GI50 (SF-295): 28.4 µM (inactive) | GI50 (SK-MEL-28): 25.1 µM (inactive) | GI50 (SK-MEL-2): 22.2 µM (inactive) | GI50 (SK-MEL-5): 17.3 µM (inactive) | GI50 (SK-OV-3): 40.6 µM (inactive) | GI50 (SN12C): 29.2 µM (inactive) | GI50 (SNB-19): 37.3 µM (inactive) | GI50 (SNB-75): 34.4 µM (inactive) | GI50 (SR): 31.5 µM (inactive) | GI50 (SW-620): 31.6 µM (inactive) | GI50 (T47D): 44.4 µM (inactive) | GI50 (TK-10): 24 µM (inactive) | GI50 (U-251): 25.7 µM (inactive) | GI50 (UACC-257): 24.7 µM (inactive) | GI50 (UACC-62): 16.3 µM (inactive) | GI50 (UO-31): 32.1 µM (inactive)

O=C1CCC(c2ccccc2)(c2ccccc2)CC1
GI50 (786-0): > 100 µM (inactive) | GI50 (A498): > 100 µM (inactive) | GI50 (A549): 49.4 µM (inactive) | GI50 (ACHN): > 100 µM (inactive) | GI50 (BT-549): 83.2 µM (inactive) | GI50 (CAKI-1): > 100 µM (inactive) | GI50 (CCRF-CEM): 19.8 µM (inactive) | GI50 (COLO 205): 27.9 µM (inactive) | GI50 (DU-145): > 100 µM (inactive) | GI50 (EKVX): 92.3 µM (inactive) | GI50 (HCT-116): 41.3 µM (inactive) | GI50 (HCT-15): 47.4 µM | GI50 (HL-60): 33.5 µM (inactive) | GI50 (HOP-62): > 100 µM (inactive) | GI50 (HOP-92): > 100 µM (inactive) | GI50 (HT-29): 55.5 µM (inactive) | GI50 (Hs-578T): 81.1 µM (inactive) | GI50 (IGROV-1): > 100 µM (inactive) | GI50 (K562): 29.7 µM (inactive) | GI50 (KM12): > 100 µM (inactive) | GI50 (LOX IMVI): > 100 µM (inactive) | GI50 (M14): 65.8 µM (inactive) | GI50 (MCF7): 46 µM (inactive) | GI50 (MDA-MB-231): > 100 µM (inactive) | GI50 (MDA-MB-435): > 100 µM (inactive) | GI50 (MDA-N): 45.6 µM (inactive) | GI50 (MOLT-4): 30.6 µM (inactive) | GI50 (Malme-3M): > 100 µM (inactive) | GI50 (NCI-H226): 36.6 µM (inactive) | GI50 (NCI-H23): 57.7 µM (inactive) | GI50 (NCI-H460): > 100 µM (inactive) | GI50 (NCI-H522): 71.3 µM (inactive) | GI50 (NCI/ADR-RES): 40 µM (inactive) | GI50 (OVCAR-3): > 100 µM (inactive) | GI50 (OVCAR-4): > 100 µM (inactive) | GI50 (OVCAR-5): > 100 µM (inactive) | GI50 (OVCAR-8): > 100 µM (inactive) | GI50 (PC-3): 73.6 µM (inactive) | GI50 (RPMI-8226): 30.7 µM (inactive) | GI50 (RXF 393): > 100 µM (inactive) | GI50 (SF-268): > 100 µM (inactive) | GI50 (SF-295): > 100 µM (inactive) | GI50 (SK-MEL-28): > 100 µM (inactive) | GI50 (SK-MEL-2): > 100 µM (inactive) | GI50 (SK-MEL-5): 30.7 µM (inactive) | GI50 (SK-OV-3): > 100 µM (inactive) | GI50 (SN12C): 38.1 µM (inactive) | GI50 (SNB-19): > 100 µM (inactive) | GI50 (SNB-75): > 100 µM (inactive) | GI50 (SR): 37.8 µM (inactive) | GI50 (SW-620): 82.2 µM (inactive) | GI50 (T47D): 41.5 µM (inactive) | GI50 (TK-10): 85.9 µM (inactive) | GI50 (U-251): > 100 µM (inactive) | GI50 (UACC-257): > 100 µM (inactive) | GI50 (UACC-62): > 100 µM (inactive) | GI50 (UO-31): 65 µM (inactive)

COc1cc2c(cc1OC)C(=O)/C(=C/c1cc(OC)c(OC)c(OC)c1)C2
GI50 (A498): > 100 µM (inactive) | GI50 (BT-549): 36.9 µM (inactive) | GI50 (CAKI-1): > 100 µM (inactive) | GI50 (CCRF-CEM): > 100 µM (inactive) | GI50 (COLO 205): > 100 µM (inactive) | GI50 (DU-145): > 100 µM (inactive) | GI50 (HCT-15): > 100 µM | GI50 (HL-60): > 100 µM (inactive) | GI50 (HOP-62): 43.6 µM (inactive) | GI50 (HOP-92): > 100 µM (inactive) | GI50 (HT-29): > 100 µM (inactive) | GI50 (Hs-578T): > 100 µM (inactive) | GI50 (IGROV-1): > 100 µM (inactive) | GI50 (K562): > 100 µM (inactive) | GI50 (KM12): > 100 µM (inactive) | GI50 (M14): 96.6 µM (inactive) | GI50 (MCF7): > 100 µM (inactive) | GI50 (MDA-MB-231): 66.7 µM (inactive) | GI50 (MDA-MB-435): > 100 µM (inactive) | GI50 (MDA-N): > 100 µM (inactive) | GI50 (MOLT-4): > 100 µM (inactive) | GI50 (Malme-3M): > 100 µM (inactive) | GI50 (NCI-H226): > 100 µM (inactive) | GI50 (NCI-H23): > 100 µM (inactive) | GI50 (NCI-H460): > 100 µM (inactive) | GI50 (NCI-H522): 14.6 µM (inactive) | GI50 (NCI/ADR-RES): 23.7 µM (inactive) | GI50 (OVCAR-3): > 100 µM (inactive) | GI50 (OVCAR-4): > 100 µM (inactive) | GI50 (OVCAR-5): > 100 µM (inactive) | GI50 (OVCAR-8): > 100 µM (inactive) | GI50 (PC-3): > 100 µM (inactive) | GI50 (RPMI-8226): > 100 µM (inactive) | GI50 (RXF 393): > 100 µM (inactive) | GI50 (SF-295): > 100 µM (inactive) | GI50 (SK-MEL-28): > 100 µM (inactive) | GI50 (SK-MEL-2): > 100 µM (inactive) | GI50 (SK-MEL-5): > 100 µM (inactive) | GI50 (SK-OV-3): > 100 µM (inactive) | GI50 (SN12C): > 100 µM (inactive) | GI50 (SNB-19): > 100 µM (inactive) | GI50 (SNB-75): > 100 µM (inactive) | GI50 (SR): > 100 µM (inactive) | GI50 (T47D): 90.2 µM (inactive) | GI50 (U-251): > 100 µM (inactive) | GI50 (UACC-62): > 100 µM (inactive) | GI50 (UO-31): > 100 µM (inactive)
